These results are taken from publication PMC6515238, “Novel C-2 Symmetric Molecules as α-Glucosidase and α-Amylase Inhibitors: Design, Synthesis, Kinetic Evaluation, Molecular Docking and Pharmacokinetics” (Molecules, 2019).

One series relates to maltase. Also noted: method as in PMID 28482265. To be noted: cited from earlier work.
A further series relates to glucoamylase. Also noted: method as in PMID 28482265. The note with it: cited from earlier work.
In a further series the test system is isomaltase. Also noted: method as in PMID 28482265. The note with it: cited from earlier work.
Series [1] concerns the target T1, α-amylase from porcine pancreas (Sus scrofa, UniProt P00690).
T1 construct: α-amylase from porcine pancreas (Sigma A3176-500KU, 089K1661); purchased Sigma A3176-500KU (lot 089K1661); host or cells: porcine pancreas
T1 sequence (P00690 16-511): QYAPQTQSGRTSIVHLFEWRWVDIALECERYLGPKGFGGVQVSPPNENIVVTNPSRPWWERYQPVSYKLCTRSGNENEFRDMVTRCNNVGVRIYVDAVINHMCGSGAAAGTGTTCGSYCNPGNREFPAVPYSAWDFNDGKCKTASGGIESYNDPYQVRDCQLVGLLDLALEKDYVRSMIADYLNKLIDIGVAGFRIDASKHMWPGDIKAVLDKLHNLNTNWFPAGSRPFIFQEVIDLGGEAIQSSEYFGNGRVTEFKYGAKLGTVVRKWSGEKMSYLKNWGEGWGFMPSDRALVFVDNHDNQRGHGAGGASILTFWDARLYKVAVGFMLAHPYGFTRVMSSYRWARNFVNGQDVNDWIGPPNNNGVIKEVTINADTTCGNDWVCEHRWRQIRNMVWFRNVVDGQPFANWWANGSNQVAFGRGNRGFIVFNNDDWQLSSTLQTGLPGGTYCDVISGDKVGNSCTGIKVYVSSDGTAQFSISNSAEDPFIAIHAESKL
The series can be described thus: α-Amylase inhibition assay. The class given is biochemical. The note with it: mean ± SEM; starch substrate, DNSA. The method, then:
The α-amylase inhibitory activity of sinigrin was determined according to a previously reported method with slight modifications. Briefly, 40 μL of a solution of the test inhibitor and 40 μL of enzyme solution (α-amylase from porcine pancreas (Sigma A3176-500KU, 089K1661) in a buffer of 0.02 M sodium phosphate at pH 6.9 with 0.006 M sodium chloride) were added to a 1.5-mL Eppendorf tube and incubated for 10 min at room temperature. […] Then, 100 μL of DNSA colouring reagent (10 g of sodium potassium tartrate, 1 g of 3,5-dinitrosalicylic acid and 20 mL of 2 N NaOH to a final volume of 100 mL in distilled water) was added, and the mixture was incubated in a boiling water bath for 5 min. After cooling to room temperature, the reaction mixture was diluted to 500 μL using distilled water, and the absorbance was recorded at 540 nm. For non-enzymatic reactions, the assays were performed with a blank containing all of the components except the enzyme. The values of the % inhibition and IC50 were calculated from the results of the assays using the same procedure as that described for the α-glucosidase inhibition assays.

A short description of series [2]: DPPH free radical scavenging assay. The note with it: 100 µg/mL. Here is the method: Radical scavenging activity was determined by modifying a previously reported 2,2-diphenyl-1-picrylhydrazyl (DPPH) assay. The assay solution consisted of 100 µL of DPPH solution (150 µM), 20 µL of the test compounds solution at increasing concentrations, and enough DMSO to bring the volume of solution in each well to 200 µL. The reaction mixture was then incubated for 30 min at room temperature. Ascorbic acid (vitamin C) was used as a reference inhibitor. The assay measurements were carried out using a micro plate reader (OPTIMax, Tunable) at 520 nm. The reaction rates were compared, and the percentages of inhibition caused by the presence of the test inhibitors were calculated. Each concentration was analysed in three independent experiments run in triplicate.
In general terms: DPPH is a stable violet radical that fades when it is reduced.

The target of another series is α-glucosidase (Saccharomyces cerevisiae, UniProt P53341). The experiment in a line: Kinetic study of α-glucosidase (Lineweaver-Burk). Type of series: biochemical. The note with it: Lineweaver-Burk plot. Here is the method: To understand the inhibition mechanism of the synthesized compounds on α-glucosidase, an inhibition kinetics study was performed. […] In our evaluation of the kinetics of the enzyme, the Lineweaver-Burk plot of 1/V versus 1/[S] in the presence of different inhibitor concentrations gave a series of straight lines. […] Km increases with increasing concentration, while Vmax remains essentially constant.
Sequence of α-glucosidase (P53341 whole entry): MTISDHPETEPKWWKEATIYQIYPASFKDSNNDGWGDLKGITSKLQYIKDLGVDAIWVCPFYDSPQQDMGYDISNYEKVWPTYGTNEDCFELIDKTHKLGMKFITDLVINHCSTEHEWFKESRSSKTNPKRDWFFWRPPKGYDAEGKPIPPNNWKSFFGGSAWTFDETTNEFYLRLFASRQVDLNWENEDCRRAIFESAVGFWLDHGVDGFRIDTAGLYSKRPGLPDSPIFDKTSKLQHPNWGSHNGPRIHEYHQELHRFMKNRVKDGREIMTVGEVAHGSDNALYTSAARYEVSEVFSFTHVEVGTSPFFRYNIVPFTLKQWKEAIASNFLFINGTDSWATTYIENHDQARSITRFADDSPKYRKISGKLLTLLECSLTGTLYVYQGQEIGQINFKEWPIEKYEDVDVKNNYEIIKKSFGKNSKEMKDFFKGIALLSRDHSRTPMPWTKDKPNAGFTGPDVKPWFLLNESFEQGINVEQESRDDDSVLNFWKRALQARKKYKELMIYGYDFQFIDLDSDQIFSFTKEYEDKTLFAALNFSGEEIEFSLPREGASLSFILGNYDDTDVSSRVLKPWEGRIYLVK
A series of experiments was performed to calculate the inhibition kinetics of 5g. The tested concentrations of 5g were 0.00, 0.15 and 0.3. The concentration of substrate, p-nitrophenyl-α-D-glucopyranoside, was between 0.3125 and 10 mM in all the kinetics experiments. The pre-incubation and measurement times were the same as those discussed in the α-glucosidase inhibition assay procedure. The maximal initial velocity was determined from the initial linear portion of absorbance in the first five minutes following the addition of the enzyme at 30 s intervals. The type of inhibition of the enzyme was assessed by preparing Lineweaver-Burk plots of the inverse of the velocities (1/V) versus the inverse of the substrate concentration 1/[S] mM^−1. The EI dissociation constant, Ki, was determined by the secondary plot of 1/V versus the inhibitor concentration.

Regarding `C[C@H]1O[C@H](O[C@H]2[C@H](O)[C@@H](O)[C@@H](O[C@H]3[C@H](O)[C@@H](O)C(O)O[C@@H]3CO)O[C@@H]2CO)[C@H](O)[C@@H](O)[C@@H]1N[C@H]1C=C(CO)[C@@H](O)[C@H](O)[C@H]1O` (some centres unmarked) [Acarbose, acarbose], the inhibition of maltase with maltase is listed as 60%. In addition, the inhibition of glucoamylase in the series with glucoamylase is given as 90%. In addition, the inhibition of isomaltase in the series on isomaltase is on record as 10%.

Take `O=[N+]([O-])c1ccc(/N=N/c2ccc(O)c(/C=N/N=C/c3cc(/N=N/c4ccc([N+](=O)[O-])cc4[N+](=O)[O-])ccc3O)c2)c([N+](=O)[O-])c1` [Compound 5a, (E)-2,2’-((1E,1’E)-Hydrazine-1,2-diylidenebis(methanylylidene))bis(4-((E)-(2,4-dinitrophenyl)diazenyl)phenol)]: the melting point (as a rule, the temperature, or range, at which the solid turns liquid) was 275 °C. In addition, in series [1], the IC50 – broadly, the midpoint of a concentration-inhibition curve – amounted to 8.54 ± 0.653 µM.

Turning to `Oc1ccc(/N=N/c2cccc(Cl)c2Cl)cc1/C=N/N=C/c1cc(/N=N/c2cccc(Cl)c2Cl)ccc1O` [Compound 5b, (E)-2,2’-((1E,1’E)-Hydrazine-1,2-diylidenebis(methanylylidene))bis(4-((E)-(2,3-dichlorophenyl)diazenyl)phenol)], the melting point is 222 °C. The compound also displayed an IC50 in series [1] of 28.4 ± 2.17 µM.

Compound `Oc1ccc(/N=N/c2ccccc2Cl)cc1/C=N/N=C/c1cc(/N=N/c2ccccc2Cl)ccc1O` [Compound 5c, (E)-2,2’-((1E,1’E)-Hydrazine-1,2-diylidenebis(methanylylidene))bis(4-((E)-(2-chlorophenyl)diazenyl)phenol)] registered a melting point of 195 °C. In series [1], this compound came in with an IC50 of 9.55 ± 0.73 µM.

Consider `Oc1ccc(/N=N/c2ccc(Cl)cc2)cc1/C=N/N=C/c1cc(/N=N/c2ccc(Cl)cc2)ccc1O` [Compound 5d, (E)-2,2’-((1E,1’E)-Hydrazine-1,2-diylidenebis(methanylylidene))bis(4-((E)-(4-chlorophenyl)diazenyl)phenol)], for which the melting point is 205 °C. Besides, the “Free radical scavenging activity (%)” value in series [2] is on record as “did not show significant scavenging potencies”. The IC50 in series [1] was determined as 9.72 ± 0.863 µM.

As to `NS(=O)(=O)c1ccc(/N=N/c2ccc(O)c(/C=N/N=C/c3cc(/N=N/c4ccc(S(N)(=O)=O)cc4)ccc3O)c2)cc1` [Compound 5e, 4,4’-((1E,1’E)-(((1E,1’E)-Hydrazine-1,2-diylidenebis(methanylylidene))bis(4-hydroxy-3,1-phenylene))bis(diazene-2,1-diyl))dibenzenesulfonamide], the melting point stood at 225 °C. For the same compound, the IC50 in series [1] turned out to be 28.5 ± 2.08 µM.

As to `O=S(=O)([O-])c1ccc(/N=N/c2ccc(O)c(/C=N/N=C/c3cc(/N=N/c4ccc(S(=O)(=O)[O-])cc4)ccc3O)c2)cc1.[Na+].[Na+]` [Compound 5f, Sodium 4,4’-((1E,1’E)-(((1E,1’E)-hydrazine-1,2-diylidenebis(methanylylidene))bis(4-hydroxy-3,1-phenylene))bis(diazene-2,1-diyl))dibenzenesulfonate], the melting point is 240 °C. The “Free radical scavenging activity (%)” value in series [2] is reported as “did not show significant scavenging potencies”. Besides, in series [1], 4.29 ± 0.328 µM corresponded to half-maximal inhibition (IC50).

In turn, `O=[N+]([O-])c1ccc(/N=N/c2ccc(O)c(/C=N/N=C/c3cc(/N=N/c4ccc([N+](=O)[O-])cc4)ccc3O)c2)cc1` [Compound 5g, (E)-2,2’-((1E,1’E)-Hydrazine-1,2-diylidenebis(methanylylidene))bis(4-((E)-(4-nitrophenyl)diazenyl)phenol)] returned a melting point of 215 °C. The “Free radical scavenging activity (%)” value in series [2] is given as “did not show significant scavenging potencies”. Also, the type of inhibition entry on α-glucosidase is on record as “competitive”. Half-maximal inhibition in series [1] (IC50) required 0.438 ± 0.042 µM.

As for `Oc1ccc(/N=N/c2cccc(Cl)c2)cc1/C=N/N=C/c1cc(/N=N/c2cccc(Cl)c2)ccc1O` [Compound 5h, (E)-2,2’-((1E,1’E)-Hydrazine-1,2-diylidenebis(methanylylidene))bis(4-((E)-(3-chlorophenyl)diazenyl)phenol)], the melting point was found to be 210 °C. The compound further had an IC50 in series [1] of 0.59 ± 0.012 µM.
